Source: patent publication US10851096B2, “Aryl and heteroaryl amides for use as anti-proliferative, anti-thrombotic, and anti-viral agents” (Rutgers, The State University of New Jersey, priority 2016, dated 2020)

What was measured:
Akt phosphorylation = test: Gas6-inducible Akt phosphorylation in Axl-positive cancer cell lines; assay type: cell-based, human; conditions: pre-treatment with 10 μM
Protocol: Stable hAxl/IFN-γR1 CHO reporter cell lines (containing human Axl extracellular domains and transmembrane and intracellular domains of human IFN-γR1) were serum starved for 5 hrs±small molecule inhibitors and then stimulated with human Gas6 conditioned media±small molecule inhibitors for 30 minutes. For H1299 human non-small cell lung carcinoma and MDA-MB-231 human breast adenocarcinoma cell lines, the cells were serum starved overnight±small molecule inhibitors and stimulated with human Gas6 conditioned media±small molecule inhibitors for 30 minutes. Whole cell lysates of hAxl/IFN-γR1, H1299 and MDA-MB-231 cells were prepared using HNTG buffer (20 mM HEPES, pH 7.5, 150 mM NaCl, 10% glycerol, 1% Triton X-100, 1 mM PMSF, 1 mM Na3VO4, 10 mM Na2MoO4, 1 mM EDTA, 10 mM NaF and 20 μg/mL aprotinin). The resulting lysates were resolved on SDS-PAGE gel and immunoblotted with respective antibodies.

MDA-MB-231 cells = test: Real-time migration assay (RTCA DP Xcelligence), MDA-MB-231; assay type: cell-based, human; conditions: Gas6-inducible MDA-MB-231 cells
Protocol: H1299 and MDA-MB-231 cells lines were seeded in complete medium and allowed to attain ˜80% confluence and then serum starved overnight in medium containing 0.5% FBS. The cells were then detached by Accutase (Sigma), counted and resuspended in serum-free RPMI-1640 medium. In the lower chamber of the CIM plate, 1×RPMI-1640 containing 10% FBS was added as a chemoattractant. In the top chamber, 50 μl of 1×RPMI-1640 was added to all wells. Both chambers were assembled, loaded in the Xcelligence system, and run for 30 min for equilibration or background readings. One hundred microliters of each cell line suspended in 1×RPMI-1640 (40,000 cells/100 μl)±Gas6±small molecule inhibitors then were added in triplicates in upper chamber wells. Readings for changes in the cell index (CI) were taken every 10 min for 24 h and migration was shown as a change in cell index versus time.

H1299 cells = test: Colony forming assay, H1299; assay type: cell-based, human; conditions: H1299 cultured in the presence of Gas6
Protocol: H1299 cells were plated in 6 well plates at a very low density (˜250 cells/well). Next day, the cells were treated with the SMIs at different concentrations. The cells were incubated with the drugs for 14 days. After 14 days, colonies were stained with 0.25% crystal violet in 95% ethanol. Colonies consisting of more than 50 cells were counted.

[1] = Pharmacokinetics in mice (half-life, bioavailability); assay type: in vivo, mouse; conditions: for half-life: mouse, in vivo, read-out: half-life (t1/2) (converted)
[2] = Venous thromboembolism (VTE) mouse model; assay type: in vivo; conditions: 200 mg/kg qd IP for three days
[3] = Cancer associated VTE mouse model; assay type: in vivo; conditions: 200 mg/kg qd IP for three days

SMILES | Gas6-inducible Akt phosphorylation (Akt phosphorylation) | motility (real-time, cell index) (MDA-MB-231 cells) | clonogenic growth (H1299 cells) | bioavailability [1] | half-life [1] | reduction in thrombus size [2] | reduction in thrombus size [3]
Cc1noc(C)c1CSc1ccccc1C(=O)N1CCN(c2cccc(C(F)(F)F)c2)CC1 [1I] | abrogated | suppressed motility | suppressed clonogenic growth | good bioavailability | ~8 h |  | 
Cc1cc(CSc2ccccc2C(=O)NCCNc2ccc(C(F)(F)F)cc2[N+](=O)[O-])on1 [1Q] | abrogated | suppressed motility | suppressed clonogenic growth | good bioavailability | ~8 h | approximately 37.3% | 45%
